From patent US20030039689A1, “Polymer-based, sustained release drug delivery system” (priority 2001, published 2003)

Experiments:
[1] = Release from TC-32 coated stents, non-implanted and explanted from swine, into phosphate buffer; format: physicochemical, common swine; conditions: stents harvested on study day 5 from swine LAD and non-implanted stents; 0.1 M phosphate buffer
Experimental: Polyurethane (1.008 gm) was added to 50.0 gm of tetrahydrofuran (THF). The mixture was stirred overnight to dissolve the polymer. 5.0 gm of the polymer solution was diluted with 10.0 gm of THF. 150.2 mg of a co-drug of 5-fluorouracil (5FU) and triamcinolone acetonide (TA) (the co-drug being defined as “TC-32”) was added to the polymer solution and dissolved. The coating solution was prepared with 60% codrug loading. A 13% codrug loaded coating solution was also prepared. Bare stents (Tetra, Guidant, Lot# 1092154, 13 mm Tetra) were washed with isopropanol, air-dried, and spray coated with the coating solution using a precision airbrush. The coating was repeated until approximately 1.0 mg of total coating had been applied to each stent. The coated stents were vacuum dried for two hours at 50° C. to remove solvent residue, then subjected to plasma treatment and gamma-irradiation.
Co-drug coated stents were test in two groups. […] Samples were taken periodically and the concentration of co-drug in the buffer was tested by HPLC. The entire release media was replaced after each sample.
Group Two stents were placed in vivo. Three common swine had TC-32 coated stents implanted into the left anterior descending (LAD) coronary artery on study day 1. […] The amount of each drug released into the media was determined by HPLC.

[2] = Effect of gamma irradiation and plasma treatment on drug release from coated stents; format: physicochemical; conditions: stents with or without plasma treatment and gamma-irradiation; 0.1 M phosphate buffer pH 7.4
Experimental: FIGS. 11A and 11B are graphs showing the effect of gamma irradiation and plasma treatment on drug release. […] Samples were taken periodically and the entire release media was replaced after each sample. The amount of each drug released into the media was determined by HPLC.

[3] = Release test from Chronoflex polymer/TC-32 coated HPLC inserts into phosphate buffer; format: physicochemical
Experimental: A mixture of 3.3 gm Chronoflex C(65D) (Lot# CTB-G25B-1234) dispersion containing 0.3 gm of Chronoflex C(65D) and 2.2 gm Chronoflex C(55D) (Lot# CTB-121B-1265) dispersion containing 0.2 gm of Chronoflex C (55D), both in dimethyl acetamide (DMAC) (1:10, w/w) was prepared by mixing the two dispersions together. To this mixture, 6.0 gm of tetrahydrofurane (HPLC grade) were added and mixed. The final mixture was not a clear solution. Then 101.5 mg of a co-drug of 5-fluorouracil (5FU) and triamcinolone acetonide (TA) (the co-drug being defmed as “TC-32”) was added and dissolved into the polymer solution.
Ten (10) HPLC inserts were then coated with the polymer/TC-32 solution by dipping, which was then followed by air-drying under ambient temperature. The coating and air-drying process was repeated four (4) times (5 times total) until a total of about 10 mg of polymer/TC-32 was applied to each insert. The inserts were then placed in an oven at 80° C. for two hour to remove the residue of the solvent.

[4] = Release test from Chronoflex polymer/TC-32 dip-coated stents into phosphate buffer; format: physicochemical; conditions: phosphate buffer pH 7.4, 37° C., HPLC
Experimental: To 5.0 gm of stirred dimethyl acetamide (DMAC), 300 mg of Chronoflex C(65D) (Lot# CTB-G25B-1234) and 200 mg of Chronoflex C(55D) (Lot# CTB-121B-1265) were added. The polymer was slowly dissolved in DMAC (about 4 hours). Then 5.0 gm of THF was added to the polymer dispersion. The mixture was not a clear solution. Then 100.9 mg of TC-32 was added and dissolved in the mixture.
Three (3) Stents, supplied by Guidant Corp, were coated then with the polymer/TC-32 solution by dipping and followed by air-drying under ambient temperature. The coating and air-drying process was repeated a few times till a total of about 2.0 mg of polymer/TC-32 were applied to each stent. The coated stents were air-dried under ambient temperature in a biological safety cabinet over night. The stents were then vacuum dried at 80° C. for two hour to remove the residue of the solvent. […] Samples were taken daily, and the entire media was replaced with a fresh one at each sampling time.

[5] = Release test from PVA coated glass plates into phosphate buffer, HPLC; format: physicochemical; conditions: 0.1 M phosphate buffer pH 7.4, 37° C., intact compound plus constituents
[6] = Release test from silicone coated glass plates into phosphate buffer, HPLC
Excerpt: Samples were taken daily, and the entire release media was replaced with fresh media at each sampling time. […] Again, the data represent both intact and constituents of the inventive compound.

SMILES | intact codrug in release media [1] | intact codrug in release media [2] | half-life in buffer ([3]; 0.1 m phosphate buffer, pH 7.4, 37° C.) | intact codrug in the release media ([3]; coated HPLC inserts, phosphate buffer pH 7.4, 37° C., HPLC) | intact codrug in the release media [4] | release rate (slope of total cumulative release curve) [5] | release rate (slope of total cumulative release curve) ([6]; silicone coated glass plates, 0.1 M phosphate buffer pH 7.4, 37° C., intact compound plus constituents) | naproxen detected in release media ([6]; silicone coated glass plates, up to day 6, phosphate buffer pH 7.4, 37° C.) | TC-112 detected in buffer ([6]; silicone coating, up to day 6) | TC-112 hydrolyzed (calculated from naproxen detected) ([6]; silicone coating, up to day 6) | total TC-112 released (detected plus hydrolyzed) ([6]; silicone coating, up to day 6)
CC1(C)O[C@@H]2CC3C4CCC5=CC(=O)C=CC5(C)[C@@]4(F)[C@@H](O)CC3(C)[C@]2(C(=O)COC(=O)OCn2cc(F)c(=O)[nH]c2=O)O1 (some centres unmarked) [TC-32] | not detectable | not detectable | short | no TC-32 was detectable | No TC-32 was detectable |  |  |  |  |  | 
COc1ccc2cc(C(C)C(=O)OCn3cc(F)c(=O)[nH]c3=O)ccc2c1 (centres unmarked) [TC-112] |  |  |  |  |  | 10 µg/day | 13.3 µg/day | 43.9 mg | 51.4 mg | 71.0 mg | 122.4 mg
